Patent publication US20240228512A1, “ACYCLIC OXAZEPINE COMPOUNDS COMPRISING A 6-AZA MOIETY AND USES THEREOF” (Genentech, Inc., priority 2022, published 2024)

How the values were obtained:
[1] = target: recombinant human KRAS wild type (SOS1-mediated nucleotide exchange) (Homo sapiens (Human), UniProt P01116); experiment: KRAS biochemical assay, BODIPY-GDP exchange TR-FRET (WT-GDP HTRF)
Experimental: [Worded in the source for another variant; this variant is reported under the same test.] KRAS Biochemical Assay—BODIPY-GDP Exchange TR-FRET.
Biochemical compound potencies were assessed by evaluating inhibition of SOS1-mediated nucleotide exchange in KRAS G12D. The SOS1-promoted exchange of fluorescently-labeled GDP (BOPIDY-GDP) was monitored by time-resolved fluorescence resonance energy transfer (TR-FRET). Compounds solubilized in DMSO were dispensed as concentration series into 384-well white assay plates. […] The reaction was initiated with the addition of 5 μL of 3 nM recombinant human SOS1 and 300 nM BODIPY-GDP in assay buffer. After a 60-minute incubation, the fluorescence was measured with excitation at 337 nm and emission at 490 and 520 nm. The TR-FRET ratio was determined as the fluorescence at 520 nm divided by the fluorescence at 490 nm multiplied by 10,000. […] The normalized TR-FRET results were plotted against compound concentration, and the data fit to a 4-parameter Hill equation to determine the IC50 values.

[2] = target: recombinant human mutant KRas G12V (SOS1-mediated nucleotide exchange) (Homo sapiens (Human), UniProt P01116, G12V); experiment: KRAS biochemical assay, BODIPY-GDP exchange TR-FRET (G12V-GDP HTRF)
[3] = tested on: SW620 cells; experiment: SW620 3D proliferation assay (CellTiter-Glo); type: cell-based; settings: Homo sapiens, SW-620, 168 h, SW620, 3D culture, 7 days, read-out: SW620 CTG IC50
Experimental: (§1) SW620 and HPAC 3D proliferation assays.
(§2) Compound potencies were assessed in proliferation assays conducted with SW620 and HPAC cell lines grown in 3D cultures. Cells were seeded into 96- or 384-well ultra-low attachment plates at 3000 or 1000 cells/well, respectively, in culture medium (RPMI-1640, 10% FBS, 2 mM L-glutamine). The plated cells were centrifuged briefly, allowed to rest for 30 minutes under ambient conditions, and cultured overnight at 37° C./5% CO2 to initiate the formation of spheroids. Compound dilutions were prepared across a range of concentrations in DMSO and added to the appropriate wells of the assay plates with a 333-fold dilution into the culture medium. The plates were further incubated for 7 days. The quantity of viable cells was assessed using CellTiter-Glo 3D Cell Viability Assay (Promega). The detection reagent penetrates the spheroids and lyses the cells. The released ATP that was detected with luciferase and a luciferase substrate to generate a luminescent readout. […] The data points were fit to a 4-parameter logistic equation to determine IC50 values.

[4] = tested on: H1975 cells; experiment: H1975 CTG proliferation assay; type: cell-based; settings: Homo sapiens, NCI-H1975, H1975, CTG
[5] = tested on: HPAC cells; experiment: HPAC 3D proliferation assay (CellTiter-Glo); type: cell-based; settings: Homo sapiens, 168 h, 3D culture, 7 days, read-out: HPAC CTG IC50
Experimental: as §1, §2

[6] = tested on: SW620 PERK; experiment: SW620 PERK assay; type: cell-based; settings: Homo sapiens, SW-620, SW620, PERK

recombinant human mutant KRas G12V (SOS1-mediated nucleotide exchange), sequence (P01116-2 other isoform, or with tags, fused parts or gaps G12V): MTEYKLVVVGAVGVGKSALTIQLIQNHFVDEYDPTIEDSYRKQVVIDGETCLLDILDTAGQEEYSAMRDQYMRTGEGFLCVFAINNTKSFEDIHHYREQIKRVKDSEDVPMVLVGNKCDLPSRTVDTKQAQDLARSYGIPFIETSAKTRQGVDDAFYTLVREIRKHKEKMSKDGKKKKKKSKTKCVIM
recombinant human KRAS wild type (SOS1-mediated nucleotide exchange), sequence (P01116-2 other isoform, or with tags, fused parts or gaps): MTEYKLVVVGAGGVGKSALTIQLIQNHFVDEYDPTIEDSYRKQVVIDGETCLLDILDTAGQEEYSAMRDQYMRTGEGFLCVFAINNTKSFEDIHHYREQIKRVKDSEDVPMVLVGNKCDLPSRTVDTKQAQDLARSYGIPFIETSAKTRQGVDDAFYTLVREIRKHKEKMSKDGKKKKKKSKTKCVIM

SMILES | IC50 [1] [nM] | IC50 [2] [nM] | IC50 [3] [nM] | IC50 [4] [nM] | IC50 [6] [nM] | IC50 [5] [nM]
Cc1nc(N)cc(-c2nc3c4c(nc(OC[C@@]56CCN5C[C@]5(CC5(F)F)C6)nc4c2F)N([C@H](C)c2cncnc2N)CCO3)c1C(F)(F)F [Example 606] | 0.808 | 0.2 | 1520 | 374 | 855 | > 2000
C[C@H](c1cccnc1N)N1CCOc2nc(-c3cc(N)nc4ccccc34)c(F)c3nc(OC[C@@]45CCCN4C[C@H](F)C5)nc1c23 [Example 602, 4-(10-((R)-1-(2-aminopyridin-3-yl)ethyl)-4-fluoro-2-(((2R,7aS)-2-fluorotetrahydro-1H-pyrrolizin-7a(5H)-yl)methoxy)-9,10-dihydro-8H-7-oxa-1,3,6,10-tetraazacyclohepta[de]naphthalen-5-yl)quinolin-2-amine] | 22.6 | 2.2 | 1950 | 296 | 629 | > 2000
C[C@H](c1cccnc1N)N1CCOc2nc(-c3cncc4cccc(Cl)c34)c(F)c3nc(OC[C@@]45CCCN4C[C@H](F)C5)nc1c23 [Example 19, 3-((R)-1-(5-(5-chloroisoquinolin-4-yl)-4-fluoro-2-(((2R,7aS)-2-fluorotetrahydro-1H-pyrrolizin-7a(5H)-yl)methoxy)-8,9-dihydro-10H-7-oxa-1,3,6,10-tetraazacyclohepta[de]naphthalen-10-yl)ethyl)pyridin-2-amine] | 6.93 | 0.85 |  |  | 112 | 
Cc1cc(N)c(F)c(-c2nc3c4c(nc(OC[C@@]56CCCN5C[C@H](F)C6)nc4c2F)N([C@H](C)c2nccnc2N)CCO3)c1C(F)(F)F [Example 23, 3-((1R)-1-(5-(3-amino-2-fluoro-5-methyl-6-(trifluoromethyl)phenyl)-4-fluoro-2-(((2R,7aS)-2-fluorotetrahydro-1H-pyrrolizin-7a(5H)-yl)methoxy)-8,9-dihydro-10H-7-oxa-1,3,6,10-tetraazacyclohepta[de]naphthalen-10-yl)ethyl)pyrazin-2-amine] |  |  | 31.6 | 32.5 | 7.33 | 92
Cc1nc(N)c(Cl)c(-c2nc3c4c(nc(OC[C@@]56CCCN5C[C@H](F)C6)nc4c2F)N([C@H](C)c2cccnc2N)CCO3)c1C(F)(F)F (single isomer, unassigned) [Example 601b] | 3.16 | 0.76 |  |  |  | 
Cc1c(F)c(N)cc(-c2nc3c4c(nc(OC[C@@H]5CC[C@H]6COCCN65)nc4c2F)N([C@H](C)c2nccnc2N)CCO3)c1C(F)(F)F [Example 10, 3-((R)-1-(5-(5-amino-4-fluoro-3-methyl-2-(trifluoromethyl)phenyl)-4-fluoro-2-(((6S,8aS)-hexahydro-1H-pyrrolo[2,1-c][1,4]oxazin-6-yl)methoxy)-8,9-dihydro-10H-7-oxa-1,3,6,10-tetraazacyclohepta[de]naphthalen-10-yl)ethyl)pyrazin-2-amine] |  |  | 114 | 53.4 | 29.9 | 439
Cc1c(F)c(N)cc(-c2nc3c4c(nc(OC[C@@]56CCCN5C[C@H](F)C6)nc4c2F)N([C@H](C)c2nccnc2N)CCO3)c1C(F)(F)F [Example 9, 3-((R)-1-(5-(5-amino-4-fluoro-3-methyl-2-(trifluoromethyl)phenyl)-4-fluoro-2-(((2R,7aS)-2-fluorotetrahydro-1H-pyrrolizin-7a(5H)-yl)methoxy)-8,9-dihydro-10H-7-oxa-1,3,6,10-tetraazacyclohepta[de]naphthalen-10-yl)ethyl)pyrazin-2-amine] |  |  | 26.2 | 11.2 | 19.3 | 74.7
C[C@H](c1cccnc1N)N1CCOc2nc(-c3c(F)ccc4cnn(C)c34)c(F)c3nc(OC[C@@]45CCCN4C[C@H](F)C5)nc1c23 [Example 634, 3-((1R)-1-(4-fluoro-5-(6-fluoro-1-methyl-1H-indazol-7-yl)-2-(((2R,7aS)-2-fluorotetrahydro-1H-pyrrolizin-7a(5H)-yl)methoxy)-8,9-dihydro-10H-7-oxa-1,3,6,10-tetraazacyclohepta[de]naphthalen-10-yl)ethyl)pyridin-2-amine] |  |  | 612 | 3660 | 85.2 | 1750

Further lines, with some results ahead:

IC50 [1] [nM] | IC50 [2] [nM] | IC50 [3] [nM] | IC50 [4] [nM] | IC50 [6] [nM] | SMILES | IC50 [5] [nM]
0.255 | 0.07 | 6.14 | 47.6 |  | Cc1nc(N)c(Cl)c(-c2nc3c4c(nc(OC[C@@]56CCCN5C[C@H](F)C6)nc4c2F)N([C@H](C)c2cccnc2N)CCO3)c1C(F)(F)F (single isomer, unassigned) [Example 601a] | 
0.104 | 0.08 | 1.15 | 9.54 | 0.59 | Cc1cc(N)cc(-c2nc3c4c(nc(OC[C@@]56CCCN5C[C@H](F)C6)nc4c2F)N([C@H](C)c2cccnc2N)CCO3)c1C(F)(F)F [Example 3, 3-((R)-1-(5-(5-amino-3-methyl-2-(trifluoromethyl)phenyl)-4-fluoro-2-(((2R,7aS)-2-fluorotetrahydro-1H-pyrrolizin-7a(5H)-yl)methoxy)-8,9-dihydro-10H-7-oxa-1,3,6,10-tetraazacyclohepta[de]naphthalen-10-yl)ethyl)pyridin-2-amine] | 8.79
0.416 | 0.2 | 19.9 | 48.4 | 23 | Cc1cc(N)nc(-c2nc3c4c(nc(OC[C@@]56CCCN5C[C@H](F)C6)nc4c2Cl)N([C@H](C)c2cccnc2N)CCO3)c1C(F)(F)F [Example 633, 6-(10-((R)-1-(2-aminopyridin-3-yl)ethyl)-4-chloro-2-(((2R,7aS)-2-fluorotetrahydro-1H-pyrrolizin-7a(5H)-yl)methoxy)-9,10-dihydro-8H-7-oxa-1,3,6,10-tetraazacyclohepta[de]naphthalen-5-yl)-4-methyl-5-(trifluoromethyl)pyridin-2-amine] | 77.8
5.5 | 2.3 | 22.8 | 2610 | 29.6 | C[C@H](c1cccnc1N)N1CCOc2nc(-c3c(C(F)(F)F)ccc(N)c3Cl)c(F)c3nc(OC[C@@]45CCCN4C[C@H](F)C5)nc1c23 (single isomer, unassigned) [Example 622b] | 123
 |  | 5.32 | 2.59 | 1.9 | C#Cc1cccc2cc(O)cc(-c3nc4c5c(nc(OC[C@@]67CCCN6C[C@H](F)C7)nc5c3F)N([C@H](C)c3nccnc3N)CCO4)c12 [Example 11, 4-(10-((R)-1-(3-aminopyrazin-2-yl)ethyl)-4-fluoro-2-(((2R,7aS)-2-fluorotetrahydro-1H-pyrrolizin-7a(5H)-yl)methoxy)-9,10-dihydro-8H-7-oxa-1,3,6,10-tetraazacyclohepta[de]naphthalen-5-yl)-5-ethynyinaphthalen-2-ol] | 173
 |  | 11.5 | 363 | 5.56 | Cc1c(F)c(N)c(F)c(-c2nc3c4c(nc(OC[C@@H]5CCCN5C)nc4c2F)N([C@H](C)c2cccnc2N)CCO3)c1C(F)(F)F [Example 624, 3-((1R)-1-(5-(3-amino-2,4-difluoro-5-methyl-6-(trifluoromethyl)phenyl)-4-fluoro-2-(((S)-1-methylpyrrolidin-2-yl)methoxy)-8,9-dihydro-10H-7-oxa-1,3,6,10-tetraazacyclohepta[de]naphthalen-10-yl)ethyl)pyridin-2-amine] | 70.5
